The record followed here is patent publication US20090215783A1, “COMPOSITION FOR INDUCTION OR INHIBITION OF STEM CELL DIFFERENTIATION” (CHOONGWAE PHARMA CORPORATION, priority 2006, published 2009).

For assay [1], the system named is β-catenin/TCF transcription. The assay can be described thus: TopFlash reporter gene assay in SW480 cells. It counts as cell-based. The settings on record: Homo sapiens; SW480 cells transfected with β-catenin/TCF luciferase construct; 24 hours treatment; dual luciferase assay; read-out: IC50, inhibition of β-catenin/TCF reporter gene construct. On the procedure:
FIG. 2. Compound A (Serial No. 111 in Table 2) inhibits β-catenin/TCF transcription. […] SW480 cells (10^5) were transfected with β-catenin/TCF luciferase construct. Cells were treated with Compound A (1-50 μM). 24 hours after the treatment lysates were prepared and subjected to dual luciferase assay.
FIG. 3. Compound B (Serial No. 10 in Table 2) inhibits β-catenin/TCF transcription. […] SW480 cells ([…]) were transfected with β-catenin/TCF luciferase construct. Cells were treated with Compound B (1-50 μM). 24 hours after treatment lysates were prepared and subjected to dual luciferase assay.
SW480 cells were transfected using Superfect™ transfection reagent (Qiagen, 301307). Cells were trypsinized briefly 1 day before transfection and plated on 6 well plate (5×10^5 cells/well) so that they were 50-80% confluent on the day of transfection.
Four microgram (TOPFlash) and one microgram (pRL-null) of DNAs were diluted in […] of serum-free medium, and 30 μl of Superfect™ transfection reagent was added. The DNA-Superfect mixture was incubated at room temperature for 15 min, and then, 1 ml of 10% FBS DMEM was added to this complex for an additional 3 hours of incubation. While complexes were forming, cells were washed with PBS twice without antibiotics.
The DNA-Superfect™ transfection reagent complexes were applied to the cells before incubating at 37° C. at 5% CO2 for 3 hours. […]
In general terms: Reporter assays use an easily measured gene product as a stand-in for the process of interest.

The next assay deals with hBMMSC. Kind of assay: Cell proliferation assay (CellTiter 96) in hBMMSC. Type of assay: cell-based, human. The settings on record: Homo sapiens, treated alone, read-out: cell proliferation inhibited. How it is done: Cell proliferation assay: To investigate the cytotoxicity of the test compounds for hBMMSC, hBMMSC were exposed to the test compounds for 6-7 days at the same condition above (method b and c). Cell proliferation was assessed using CellTiter 96 Aqueous One Solution (Promega, #G3581). Absorbance at 490 nm of each well was determined with a microplate reader (Molecular Device) and % growth inhibition was calculated compared with control.

Assay [2] relates to human bone marrow derived-mesenchymal stem cells (hBMMSC). The assay can be described thus: Osteogenesis modulating activity assay by test compound alone (ALP activity). Type of assay: cell-based. In short, it runs like this: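 hBMMSC from normal subjects were treated with compound at 20 μM final (0.01% DMSO) at 37° C, 5% CO2, with medium and compound renewed every two days. Alkaline phosphatase activity in cell lysates was measured colorimetrically after six to seven days.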

The test system is the same in assay [3]. The assay can be described thus: Osteogenesis modulating activity with osteogenic induction cocktails (ALP activity, mineralization). It counts as cell-based. The settings on record: 20 μM, co-treated with osteogenic induction cocktails. On the procedure:
Cell culture: Human bone marrow derived-mesenchymal stem cells (hBMMSC) were isolated from normal subjects.
Osteogenesis modulating activity of test compounds with induction media: hBMMSC were culture with culture media containing osteogenic induction cocktails (OIC, 0.1 μM dexamethasone, 50 μM ascorbate-2-phosphate, 10 mM b-glycerophosphate). Four to five days after incubation, Alkaline phosphatase (ALP) activity of cell lysates were measured by colorimetry. For the determination of mineralization within the cells, Von Kossa staining or Alizarin Red S assay was performed 10-14 days after incubation.

Assay [4] has as its system MyoD and Myf5 protein expression in C2C12 cells. The assay can be described thus: Expression of MyoD and Myf5 (Western immunoblot) in C2C12 cells. It counts as cell-based, Murine. The settings on record: for expression of Myf5 compared with DMSO control, dose dependence: 5 and 10 μM; for Myf-5 expression on co-treatment with Wnt1 conditioned medium: co-treated with Wnt1. How it is done:
(§1) a. Cell culture: Murine C2C12 myoblastic cell line (satellite cells from thigh muscle) purchased from American Tissue Type Collection (ATCC) was maintained in exponential phase of growth using 10% FBS/DMEM with Glutamax designed as GM (growth medium) supplied with antibiotic solution (Penicillin and Streptomycin) in a controlled humidified air atmosphere supplied with 5% CO2, at 37° C. in a multiwell or tissue culture Petri dishes (Corning-Costar Inc U.S.A.).
(§2) b. Induction of differentiation and test compound treatment: Every other day the cells were washed twice with phosphate buffered saline (PBS) and medium was changed until they reached 100% confluence. Confluent cells (myoblasts of the same cell density fully covering surface dish) were then guided to post mitotic status, and differentiation and fusion were initiated by replacing GM with 2% (v/v) horse serum HS/DMEM designed as DM (differentiating medium). In the above mentioned conditions C2C12 myoblasts easily and fully differentiate into myotubes, therefore we could follow up modifications of differentiation process during 5 subsequent days. During the study freshly prepared media without or with the experimental factors were changed every 24 hours. Test compounds were dissolved in DMSO and diluted with culture medium. Test compounds (if not specified, 10 μM was used, final DMSO 0.1% v/v) or DMSO (0.1% v/v) were added to the medium.
c. Expression of MyoD and Myf5: Cells were lysed and protein expression levels were analyzed by Western-immunoblot analysis, as described in the literature (Verma et al., British J Pharmacol, 2004, 143, 106-13). Equal amount of protein samples were resolved by sodium dodecyl sulphate poly-acrylamide gel electrophoresis (SDS-PAGE) and transferred to nitrocellulose membranes. The membranes were blocked with 5% bovine serum albumin (BSA) and incubated with the indicated primary antibodies for 12˜h: polyclonal C20 antion MyoD (from Santa-Cruz, Biotechnology, Santa Cruz, Calif.) diluted 1/400, polyclonal anti-Myf-5 directed against the COOH-terminal portion of the protein. After several washes in PBS, membranes were incubated with chemiluminescence reagents.

Assay [5] concerns Mouse embryonic stem (ES) cells, TC1. Kind of assay: Cardiomyogenesis modulating activity assay (alpha-MHC promoter EGFP, embryoid bodies, FACS/fluorescence microscopy). It counts as cell-based. The settings on record: for Cardiomyogenesis: fold change of EGFP expression level compared with DMSO control: embryoid bodies treated for 5 days, FACS. In short, it runs like this:
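Mouse TC1 ES cells carrying an alpha-MHC promoter-EGFP reporter were formed into embryoid bodies (~600 cells, 2 days hanging drop, 2 days suspension), plated, then exposed to compounds (final 0.05% DMSO) for 5 days. Cardiomyogenesis assessed by EGFP via FACS after trypsin dissociation, fluorescence microscopy, and daily counts of beating EBs.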

For the next assay, the system named is C2C12 myoblasts. The assay can be described thus: Myogenesis (myotube formation) in C2C12 myoblast cells. It counts as cell-based, Murine. The settings on record: C2C12 cells grown in GM. How it is done: as §1
as §2, with “Confluent cells (myoblasts of the same cell density fully covering surface dish) were then guided to post mitotic status, and differentiation and fusion were initiated by replacing GM with 2% (v/v) horse serum HS/DMEM designed as DM (differentiating medium).” left out

Take `CN(C)c1c(Cl)cccc1CN1C[C@H]2N(C(=O)CN(C)N2C(=O)NCc2ccccc2)[C@@H](Cc2ccc(O)cc2)C1=O` [#10]: the IC50 in assay [1] amounted to 6.98 µM. In the assay with hBMMSC, the inhibition at 20 µM came to 51%. Besides, the “cellular alkaline phosphatase activity” value in assay [2] (20 μM, hBMMSC) is “strongly inhibited”. For the same compound, the ALP level reduced in assay [2] (20 μM, treated alone to hBMMSC) was found to be 77%. In addition, the fold induction at 20 µM in assay [2] (Homo sapiens, 168 h, hBMMSC, 20 μM test compound alone, six to seven days, read-out: Osteogenesis: fold change of ALP activity compared with DMSO control) was found to be 0.23. In assay [3], the “ALP level reduced compared with vehicle control group” value was 80%. For the same compound, in assay [4], the “Myf-5 expression, compound without Wnt1” value is recorded as “reduced”; the “expression of Myf5 compared with DMSO control, dose dependence” value is “dose-dependently decreased”; the “Myf-5 expression on co-treatment with Wnt1 conditioned medium” value is “abolished Myf-5 enhancing activity of Wnt1”. For the same compound, the “Myf5 expression on co-treatment of CBP” value in assay [4] (co-treatment of CBP) was “not changed”. Moreover, the “Myf5 expression on co-treatment of p300” value in assay [4] (co-treatment of p300) was “rescues the decrease of Myf5 expression”. Besides, the “expression of fluorescence, ratio Compound : DMSO control (control = 1)” value in assay [5] (10 μM for 5 days, mouse embryonic stem cells) is on record as 0.26. Also, the “Cardiomyogenesis: fold change of EGFP expression level compared with DMSO control” value in assay [5] amounted to 0.26 fold.
On to `O=C1[C@@H](Cc2ccc(O)cc2)N2C(=S)CCN(C(=O)NCc3ccccc3)[C@@H]2CN1Cc1cccc2ccccc12` [#112], for which, in assay [4], the “Myf5 protein expression level” value is on record as “significantly increased”; the “MyoD protein expression level” value is on record as “significantly increased”; the “expression of Myf5 compared with DMSO control, dose dependence” value was “dose-dependently increased”; the “Myf-5 expression on co-treatment with Wnt1 conditioned medium” value is “further enhanced”. Moreover, the “myotube formation in growth medium (GM)” value in the assay with C2C12 myoblasts is recorded as “extensive myotube formation”. In addition, the “Cardiomyogenesis: fold change of EGFP expression level compared with DMSO control” value in assay [5] turned out to be 0.95 fold.
